Series [1] has as its target T1, Toll-like receptor 7 (Homo sapiens) (UniProt Q9NYK1).
T1 sequence (whole entry): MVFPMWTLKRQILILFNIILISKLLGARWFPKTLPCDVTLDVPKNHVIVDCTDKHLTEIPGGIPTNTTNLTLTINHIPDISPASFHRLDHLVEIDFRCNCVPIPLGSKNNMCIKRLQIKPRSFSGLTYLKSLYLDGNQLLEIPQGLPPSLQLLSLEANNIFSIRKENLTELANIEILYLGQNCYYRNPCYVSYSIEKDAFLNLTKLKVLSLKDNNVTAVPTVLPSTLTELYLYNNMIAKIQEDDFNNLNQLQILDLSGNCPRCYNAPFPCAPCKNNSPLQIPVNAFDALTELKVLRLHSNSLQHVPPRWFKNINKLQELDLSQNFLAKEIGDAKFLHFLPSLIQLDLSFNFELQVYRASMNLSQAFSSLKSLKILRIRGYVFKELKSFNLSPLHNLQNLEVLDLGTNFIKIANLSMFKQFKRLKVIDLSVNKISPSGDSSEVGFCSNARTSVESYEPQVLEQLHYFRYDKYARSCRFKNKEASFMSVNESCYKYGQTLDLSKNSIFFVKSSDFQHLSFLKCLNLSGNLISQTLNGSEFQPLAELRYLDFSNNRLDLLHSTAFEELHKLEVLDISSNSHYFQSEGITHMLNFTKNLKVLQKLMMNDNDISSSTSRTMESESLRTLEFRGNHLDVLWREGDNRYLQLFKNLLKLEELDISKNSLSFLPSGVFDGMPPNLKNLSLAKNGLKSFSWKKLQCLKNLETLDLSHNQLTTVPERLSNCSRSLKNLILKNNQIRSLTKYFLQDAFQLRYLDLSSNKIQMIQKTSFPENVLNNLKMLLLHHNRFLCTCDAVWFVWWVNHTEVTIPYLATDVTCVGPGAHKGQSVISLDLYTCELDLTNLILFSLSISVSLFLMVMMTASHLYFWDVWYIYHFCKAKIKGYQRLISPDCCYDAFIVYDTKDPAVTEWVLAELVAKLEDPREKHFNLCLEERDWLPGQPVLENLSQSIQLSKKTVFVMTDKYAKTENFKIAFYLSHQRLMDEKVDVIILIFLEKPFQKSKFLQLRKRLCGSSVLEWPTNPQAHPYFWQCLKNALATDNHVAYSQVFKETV
The series can be described thus: Agonist activity at TLR7 in human PBMC assessed as suppression of HCV replicon replication in human HuH7 luc/neo cells harboring RNA encoding bicistronic expression construct comprising wild type HCV type 1b NS3-NS5B regions exposed to conditioned media from compound treated PBMCs after 24 hrs by luciferase reporter gene assay. The series is classed as cell-based. (In general: Replicon systems follow genome replication, usually without infectious particles.)

For series [2], the target named is T2, Toll-like receptor 8 (Homo sapiens) (UniProt Q9NR97).
T2 sequence (whole entry): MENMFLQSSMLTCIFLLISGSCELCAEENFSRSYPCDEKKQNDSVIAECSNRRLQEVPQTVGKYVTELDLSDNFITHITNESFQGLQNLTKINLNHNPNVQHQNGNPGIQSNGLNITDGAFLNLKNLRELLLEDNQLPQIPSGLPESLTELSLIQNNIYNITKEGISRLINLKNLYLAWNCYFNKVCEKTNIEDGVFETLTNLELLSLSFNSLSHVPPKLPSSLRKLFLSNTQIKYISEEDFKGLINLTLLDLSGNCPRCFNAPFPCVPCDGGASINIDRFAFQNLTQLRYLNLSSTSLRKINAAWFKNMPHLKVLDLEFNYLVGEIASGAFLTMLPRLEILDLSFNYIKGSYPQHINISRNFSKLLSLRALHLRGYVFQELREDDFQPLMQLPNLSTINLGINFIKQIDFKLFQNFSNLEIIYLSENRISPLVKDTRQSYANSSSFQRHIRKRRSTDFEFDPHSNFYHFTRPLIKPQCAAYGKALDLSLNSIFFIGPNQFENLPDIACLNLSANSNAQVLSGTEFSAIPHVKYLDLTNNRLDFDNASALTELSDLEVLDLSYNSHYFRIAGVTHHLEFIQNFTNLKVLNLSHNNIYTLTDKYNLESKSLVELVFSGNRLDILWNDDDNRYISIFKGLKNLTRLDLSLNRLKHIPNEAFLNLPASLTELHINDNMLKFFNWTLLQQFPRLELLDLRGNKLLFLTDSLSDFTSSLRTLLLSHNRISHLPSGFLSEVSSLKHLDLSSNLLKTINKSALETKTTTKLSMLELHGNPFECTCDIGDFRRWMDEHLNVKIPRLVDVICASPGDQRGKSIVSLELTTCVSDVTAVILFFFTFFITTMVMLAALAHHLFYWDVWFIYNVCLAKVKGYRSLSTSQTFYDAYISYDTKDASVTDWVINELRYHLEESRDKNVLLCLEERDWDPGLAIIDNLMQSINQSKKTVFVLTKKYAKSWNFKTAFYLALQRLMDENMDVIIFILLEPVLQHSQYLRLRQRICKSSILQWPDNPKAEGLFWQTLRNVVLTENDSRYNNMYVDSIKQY
Kind of series: Agonist activity at human TLR8 expressed in HEK293 cells after 6 hrs by NFkappaB-luciferase reporter gene assay. The format is cell-based. Background: A reporter such as luciferase makes a cellular process visible.

Series [3] is described as follows: Cytotoxicity against HEK293 cells transfected with the CMV-TLR7 construct assessed as reduction in cell viability after 6 hrs by ATPlite assay. The format is cell-based. The conditions noted are these: human.
Series [4] in a line: AUC (0 to last) in C57BL/6 mouse liver at 5 mg/kg, po. The series is classed as ADME, organism-based. The conditions noted are these: in vivo.
Series [5] is described as follows: Tmax in C57BL/6 mouse plasma at 5 mg/kg, po. The format is ADME, organism-based.
The next series has as its target T3, Cytochrome P450 1A2 (Homo sapiens, UniProt P05177).
T3 sequence (P05177 whole entry): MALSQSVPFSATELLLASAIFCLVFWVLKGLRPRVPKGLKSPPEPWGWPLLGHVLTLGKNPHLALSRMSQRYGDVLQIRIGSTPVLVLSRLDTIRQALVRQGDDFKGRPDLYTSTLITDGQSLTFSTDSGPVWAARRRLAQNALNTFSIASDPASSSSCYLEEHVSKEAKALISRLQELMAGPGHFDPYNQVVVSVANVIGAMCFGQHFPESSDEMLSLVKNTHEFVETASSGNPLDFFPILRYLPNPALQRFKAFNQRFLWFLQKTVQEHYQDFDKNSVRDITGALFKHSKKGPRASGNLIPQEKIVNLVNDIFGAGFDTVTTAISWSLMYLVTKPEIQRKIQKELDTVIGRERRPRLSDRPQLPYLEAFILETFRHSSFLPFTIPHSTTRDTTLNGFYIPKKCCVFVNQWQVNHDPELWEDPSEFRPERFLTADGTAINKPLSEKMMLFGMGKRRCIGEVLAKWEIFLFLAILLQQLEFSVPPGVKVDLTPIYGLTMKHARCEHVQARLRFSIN
The series can be described thus: Inhibition of CYP1A2 (unknown origin). The format is ADME.

Molecules are shown by their SMILES. Some results are limits rather than exact numbers.

We go through one compound from ChEMBL document CHEMBL4265889, “Design and synthesis of tetrahydropyridopyrimidine based Toll-Like Receptor (TLR) 7/8 dual agonists” (Bioorg Med Chem Lett, 2018).

For `CCC[C@@H](CCO)Nc1nc(N)nc2c1CN(C(=O)c1csc(C)n1)CC2`, the MEC in series [1] came out at 0.2 µM; in series [2], 3.4 µM. For the same compound, in series [3], the CC50 at 6 h was above 24 µM. The AUClast in series [4] was 1410 ng·h/g. Also, the Tmax in series [5] was 30 min. Besides, on Cytochrome P450 1A2, the IC50 is above 10 µM.

What is called CC50 is the concentration at which the toxic effect on the cells reaches its halfway point. For orientation: Tmax means the time from dosing to the highest level. The IC50 is the concentration that gives 50% inhibition. A higher IC50 goes with a need for much substance.
